# How the values were obtained:
# [1] = tested on: ERK; assay: Western blot of EV71-induced phosphorylation of ERK in SK-N-SH cells; type: cell-based; details: pretreatment 24 h, formononetin 14.91 μmol/L, pirodavir 1.08 μmol/L, EV71 15 min
# Description: Figure 3 Formononetin but not pirodavir reduces the phosphorylation of ERK (A), p38 (B), and JNK (C) induced by EV71 infection. SK-N-SH cells (9 × 10^5 cells/well) were plated into 6-well culture plates. The cells were then pretreated with formononetin (14.91 μmol/L) and pirodavir (1.08 μmol/L), respectively. After 24 h, the cells were mock-infected or infected with 4.8 × 10^5 pfu/well of EV71 (SHZH98) for 15 min (A), 10 min (B), and 30 min (C), respectively. The cells were harvested and ERK (A) p-ERK (A), p38 (B), p-p38 (B), JNK (C), and p-JNK (C) were detected by western blot.
# Cells were lysed in the M-PER mammalian protein extraction reagent (Thermo, Rockford, IL) containing halt protease inhibitor single-use cocktail (Thermo). The protein concentration was determined by the BCA reagents (Thermo). About 10 μg proteins were denatured and applied to sodium dodecyl sulfate-polyacrylamide gel electrophoresis (SDS-PAGE). The electrophoresis products were transferred to a polyvinyl idenefluoride (PVDF) film and PVDF membranes were then incubated at room temperature with specific primary antibody. After a standard washing, membranes were incubated with horse radish peroxidase (HRP)-labeled secondary antibody. The assay developed using a chemiluminescent substrate. […]
# [2] = tested on: EV71 strain JS-52; assay: CPE inhibition assay, EV71 strain JS-52 in Vero cells; type: cell-based, enterovirus 71; details: Enterovirus A, EV71 JS-52, Vero cells
# Description: (§1) The anti-EV71 activity of formononetin was assayed by CPE inhibition method. Briefly, cells (3 × 10^4 cells/well) were plated into 96-well culture plates for incubation of 24 h. The medium was then removed and cells were infected with EV71 of 80 pfu/well. Then, various concentrations of formononetin were supplemented for incubation of another 48 h. The IC50 defined as the minimal concentration of inhibitor required to inhibit 50% of CPE was determined by Reed & Muench method. The selectivity index (SI) was calculated as the ratio of TC50/IC50 [19].
# [3] = tested on: PGE2; assay: PGE2 release assay (EIA) in EV71-infected SK-N-SH cells; type: cell-based; details: pretreatment 24 h, formononetin 14.91 μmol/L, pirodavir 1.08 μmol/L, supernatant at 24 h p.i.
# Description: Figure 4 Formononetin could inhibit EV71-induced COX-2 expression and PGE 2 production. (A) Formononetin but not pirodavir can reduce the expression of COX-2 induced by EV71 infection. SK-N-SH cells were mock-infected or infected with 480 pfu/well of EV71 (SHZH98) for 2 h. The cells were then treated with formononetin (14.91 μmol/L) and pirodavir (1.08 μmol/L), respectively, for 24 h. The cells were harvested and EV71-VP1 and COX-2 were examined by western blot. (B) Formononetin but not pirodavir can reduce the release of PGE2 stimulated by EV71 infection. SK-N-SH cells were pretreated with formononetin (14.91 μmol/L) or pirodavir (1.08 μmol/L) for 24 h. The cells were infected with 4.8 × 10^5 pfu/well of EV71 (SHZH98). At 24 h p.i., the culture supernatants were harvested for PGE2 release assay. For the detection of PGE2 release, SK–N–SH cells (3 × 10^5 cells/well) were seeded into 24-well culture plates and were incubated for 16 h. And then the cells were serum-deprived for 24 h and incubated with EV71 for the indicated time intervals. When drugs were used, they were added 24 h prior to the application of EV71. After treatment, the supernatants were harvested. The supernatant from each sample was assayed using a PGE2 EIA kit (AMEKO) following the manufacturer’s instruction. […] The absorbance of each well was measured at 450 nm.
# [4] = tested on: CVB2 (strain Ohio-1); assay: CPE inhibition assay for anti-CVBs, CVB2 in Vero cells; type: cell-based, coxsackievirus B2; details: Enterovirus B, CVB2, 100 TCID50, Vero cells
# Description: (§2) The anti-virus activity of formononetin on CVBs was also assayed by CPE method. Briefly, cells (3 × 10^4 cells/well) were plated into 96-well culture plates for incubation of 24 h. The medium was removed and cells were infected with 100 TCID50 of CVB2, CVB6 or CVB3. Then, various concentrations of formononetin were supplemented for incubation of another 48 h. The IC50 was determined by Reed and Muench method. The SI was calculated as the ratio of TC50/IC50 [19].
# [5] = tested on: EV71 SHZH98 strain; assay: CPE inhibition assay for anti-EV71 in Vero cells; type: cell-based, enterovirus 71; details: Enterovirus A, 48 h
# Description: as §1, with “The IC50 defined as the minimal concentration of inhibitor required to inhibit 50% of CPE was determined by Reed & Muench method.” left out
# [6] = tested on: EV71 SHZH98 strain; assay: CPE inhibition assay for anti-EV71 in SK-N-SH cells; type: cell-based, enterovirus 71; details: Enterovirus A, 48 h
# Description: as §1, with “The IC50 defined as the minimal concentration of inhibitor required to inhibit 50% of CPE was determined by Reed & Muench method.” left out
# [7] = tested on: CVB3 (strain Nancy); assay: CPE inhibition assay for anti-CVBs, CVB3 in Vero cells; type: cell-based, coxsackievirus B3; details: Enterovirus B, CVB3, 100 TCID50, Vero cells
# Description: as §2
# [8] = tested on: EV71; assay: Antiviral activity against EV71, comparison of pirodavir and pleconaril (data not shown); type: cell-based, enterovirus 71
Structure (SMILES),EV71-stimulated phosphorylation of ERK [1],IC50 [2] [µM],EV71-stimulated PGE2 release [3],IC50 [4] [µM],IC50 [5] [µM],IC50 [6] [µM],IC50 [7] [µM],Antiviral activity against EV71 compared with pleconaril [8]
COc1ccc(-c2coc3cc(O)ccc3c2=O)cc1 [Formononetin],significantly attenuated,17.9 ± 8.51,attenuated,9.56 ± 2.23,3.45 ± 0.55,3.98 ± 0.8,2.57 ± 0.87,–
"CCOC(=O)c1ccc(OCCC2CCN(c3ccc(C)nn3)CC2)cc1 [Pirodavir, reference compound]",not,–,not,–,0.38 ± 0.08,0.23 ± 0.04,–,better than pleconaril
